Reference: patent US12297457B2, “Esophageal tissue and/or organoid compositions and methods of making same” (Children's Hospital Medical Center, priority 2017, dated 2025)
Entries after “also recorded” stand apart in the source; their conditions may differ.

Columns and labels:
Assay type in all cases: cell-based, human
CDX2-induced HEOs = test: Notch inhibition in CDX2-induced HEOs (qPCR, IF); settings: d58 HEOs
Experimental: Human embryonic stem cell (hESC) line H1 (WA01, person) were purchased from WiCell. iPSC line iPS106 was generated in-house and approved by the institutional review board at CCHMC. All hPSCs were maintained on feeder-free cultures: cells were plated on hESC-qualified Matrigel (BD Biosciences, San Jose, Calif.) and maintained at 37° C. with 5% CO2 with daily replacement of mTeSR1 media (STEMCELL Technologies, Vancouver, Canada); cells were passaged routinely every 4 days using Dispase (STEMCELL Technologies). The HA-tagged SOX2, CDX2, or FANCA dox-inducible lines were generated by first cloning the human SOX2 ORF, CDX2 ORF, or FANCA ORF into pINDUCER20 (respectively) (Addgene #44012, Meerbrey et al., 2011). Next, lentivirus was generated with help of the Viral Vector Core Facility at CCHMC. The lentivirus for HA-SOX2 and CDX2 were transduced into hESCs with 2 μL of virus; these lines were maintained on selection with mTeSR1 and G418 (500 μg mL-1, ThermoFisher Scientific). The lentivirus for FANCA were transduced prior to the iPS106 line generation, as FANCA is required for maintenance of hPSC properties. The hESC H1 line (and transduced derivatives) was used in all experiments excluding Fanconi Anemia modeling in HEOs, which used the iPS106 line.
(§1) For the generation of anterior foregut spheroids, from definitive endoderm, cells were treated with Wnt3a (500 ng mL-1, R&D systems) for 2 days, and FGF4 (500 ng mL-1, R&D systems), Noggin (200 ng mL-1) for 3 days in RPMI 1640 with 2% dFBS. Three-dimensional culture and differentiation of anterior foregut spheroids into human esophageal organoids were obtained as described above.
Tissue cultures were fixed with 4% paraformaldehyde at either room temperature for 15 minutes (for monolayer cultures), or 4° C. for overnight (for organoids). […]
Monolayer cultures and organoids were harvested in total, including the plated/embedding matrigel. […] For qRT-PCR, Applicant used Quantitect SYBR-Green master mix (Qiagen) and ran the reaction on a QuantStudio 6 machine (ThermoFisher Scientific).

foregut spheroids = test: Anterior-posterior patterning of foregut spheroids (qPCR, IF); settings: for regional identity of foregut spheroids (HNF1β, SOX2, PROX1, HNF6): shorter duration of treatment following DE formation, day 6 spheroids
Experimental: Confluent hPSC cultures were treated with Acutase (STEMCELL Technologies) to resuspend as single cells in mTeSR1 and Y-27632 (10 μM, Tocris) and plated on Matrigel. On the following day, differentiation into definitive endoderm was carried out as previously described (McCracken et al., 2014). Briefly, cells were treated with Activin A (100 ng mL-1, R&D systems, Minneapolis, Minn.) and BMP4 (50 ng mL-1, R&D systems) on the first day in RPMI 1640 media (Life Technologies). Cells in the following two days were treated with only Activin A (100 ng mL-1) in RPMI 1640 with increasing concentrations 0.2% and 2% of HyClone defined fetal bovine serum (dFBS, GE Healthcare Life Sciences).
For anterior foregut monolayer cultures, cells were treated for 3 days in Noggin (200 ng mL-1) in RPMI 1640 with 2% dFBS, with all-trans retinoic acid (2 μM, Sigma, St. Louis, Mo.) the 3rd day.
(§2) Alternately, for the generation of anterior foregut spheroids, from definitive endoderm, cells were treated with FGF4 (500 ng mL-1, R&D systems), Noggin (200 ng mL-1) for 3 days in RPMI 1640 with 2% dFBS. Additional factors were tested during this time (described in results), such as CHIR99021 (“chiron” or “chr”, 2 μM, Tocris), Wnt3a (500 ng mL-1, R&D systems), SB431542 (10 μM, Tocris), DEAB (10 μM, Sigma), and retinoic acid (2 μM).
Tissue cultures were fixed with 4% paraformaldehyde at either room temperature for 15 minutes, 4° C. for 2 hours for cryosectioning, or 4° C. overnight for paraffin embedding/sectioning and mouse embryos. For paraffin embedding and sectioning, following fixation, tissues were dehydrated and embedded into paraffin blocks. Afterwards, paraffin-sectioned slides were deparaffinized and subjected to antigen retrieval in 10 mM sodium citrate for 30 minutes prior to staining. For cryosectioning, tissues were thoroughly washed in PBS, left in 30% sucrose overnight, embedded in OCT compound (VWR), and sectioned at a thickness of 8 μm. Commonly, slides were then permeabilized with 0.5% TritonX-100 in PBS for 10 minutes, blocked in 5% normal donkey serum (Jackson ImmunoResearch) for 1 hour, and incubated in primary antibody overnight at 4° C. On the next day, slides were thoroughly washed in PBS, incubated in secondary antibody (at 1:500) for 1 hour, and then thoroughly washed again. For EdU visualization, Applicant used the Click-iT EdU Alexa Fluor 488 Imaging Kit (Invitrogen) prior to blocking. For wholemount immunofluorescence staining, embryos were placed in 100% methanol immediately after fixation. Embryos were then permeabilized with Dent's Bleach (4:1:1 MeOH:DMSO:30% H2O2) for 2 hours at room temperature, rehydrated with methanol washes, and blocked for several hours at room temperature to overnight at 4° C. Primary antibodies were applied and embryos incubated overnight at 4° C. Then, embryos were thoroughly washed in 0.1% TritonX-100 in PBS before incubating in secondary antibodies overnight at 4° C. Finally, embryos were washed again, dehydrated with methanol washes, and cleared with Murray's Clear (2:1 benzyl benzoate:benzyl alcohol, Sigma) at least 15 minutes prior to imaging. For a list of antibodies and dilutions used, please see Table 2.
Spheroid and organoids were harvested in total, including the embedding matrigel. Collagen plugs from the organotypic raft cultures were first removed from the transwell on day 14, and subsequently harvested in total. Total RNA was isolated using the NucleoSpin RNA kit (Macherey-Nagel) and reverse transcribed to cDNA using the SuperScript VILO cDNA synthesis kit (ThermoFisher Scientific). For qRT-PCR, Applicant used Quantitect SYBR-Green master mix (Qiagen) and ran the reaction on a QuantStudio 6 machine (ThermoFisher Scientific). For a list of primers used, please see Table 1.

HEOs [1] = test: IL-13 treatment of HEOs, eosinophilic esophagitis model (qPCR, Western blot, IF, EdU, H&E, electron microscopy)
Experimental: (§3) Anterior foregut spheroids were transferred into 50 μL droplets of Matrigel, and are cultured for 3-58 days in the base (“Gut”) media of Advanced DMEM/F12 (ThermoFisher Scientific) supplemented with B27 supplement (1×, ThermoFisher Scientific), N2 supplement (1×, ThermoFisher Scientific), HEPES (13 mM, ThermoFisher Scientific), L-Glutamine (2 mM ThermoFisher Scientific), penicillin/streptomycin (1×, ThermoFisher Scientific), and EGF (100 ng mL^−1, R&D systems). In addition to this base media, the first three days were supplemented with Noggin (200 ng mL^−1), FGF10 (50 ng mL^−1), and CultureOne supplement (1×, ThermoFisher Scientific). FGF10 and CultureOne supplementation is continued until the end of the first week in three-dimensional culture. Media was replaced every 3-4 days. For EdU labeling, media was supplemented with EdU (10 μM Invitrogen) for a defined period of time, and was removed by washing with sterile PBS twice before replacing with media without EdU.
as §1
(§4) Tissue cultures were fixed with 4% paraformaldehyde at either room temperature for 15 minutes (for monolayer cultures), or 4° C. for overnight (for organoids). Tissues were thoroughly washed in PBS and stained for monolayer cultures, while organoids were thoroughly washed and then left in 30% sucrose overnight, embedded in OCT compound (VWR), and sectioned at a thickness of 8 μm. Slides were then permeabilized with 0.5% TritonX-100 in PBS for 10 minutes, blocked in 5% normal donkey serum (Jackson ImmunoResearch) for 1 hour minimum, and incubated in primary antibody overnight at 4° C. On the next day, slides were thoroughly washed in PBS, incubated in secondary antibody (at 1:500) for 1 hour, and then thoroughly washed again. For EdU visualization, the Click-iT EdU Alexa Fluor 488 Imaging Kit (Invitrogen) was used prior to blocking.
(§5) Monolayer cultures and organoids were harvested in total, including the plated/embedding matrigel. Total RNA was isolated using the NucleoSpin RNA kit (Macherey-Nagel) and reverse transcribed to cDNA using the SuperScript VILO cDNA synthesis kit (ThermoFisher Scientific). For qRT-PCR, Applicant used Quantitect SYBR-Green master mix (Qiagen) and ran the reaction on a QuantStudio 6 machine (ThermoFisher Scientific).

HEOs [2] = test: BMP activation in late stage HEOs (IF, EdU, qPCR)
Experimental: as §3, §1, §4, §5

AFG spheroids = test: Dorsal-ventral patterning / respiratory induction of anterior foregut spheroids (qPCR, IF); settings: day 6 AFG spheroids treated 3 days; analysed day 9
Experimental: as §2
Anterior foregut spheroids were transferred into 50 μL droplets of Matrigel, and are cultured for 3-58 days in the base (“Gut”) media of Advanced DMEM/F12 (ThermoFisher Scientific) supplemented with B27 supplement (1×, ThermoFisher Scientific), N2 supplement (1×, ThermoFisher Scientific), HEPES (13 mM, ThermoFisher Scientific), L-Glutamine (2 mM ThermoFisher Scientific), penicillin/streptomycin (1×, ThermoFisher Scientific), and EGF (100 ng mL^−1, R&D systems). In addition to this base media, the first three days were supplemented with Noggin (200 ng mL^−1), FGF10 (50 ng mL^−1), and CultureOne supplement (1×, ThermoFisher Scientific). […]
Spheroid and organoids were harvested in total, including the embedding matrigel. […] For qRT-PCR, Applicant used Quantitect SYBR-Green master mix (Qiagen) and ran the reaction on a QuantStudio 6 machine (ThermoFisher Scientific). […]

[3] = 6-week-old HEOs, BMP4 100 ng/mL for additional 2 weeks

Molecule: C[C@H](NC(=O)Cc1cc(F)cc(F)c1)C(=O)N[C@H](C(=O)OC(C)(C)C)c1ccccc1 [DAPT]
- KRT5 expression (CDX2-induced HEOs; CDX2-induction plus DAPT): further downregulated
- KRT13 expression, effect added to CDX2-induction (CDX2-induced HEOs; CDX2-induction plus DAPT): does not appear to be a synergistic effect
- HESS (Notch target gene) expression (CDX2-induced HEOs; qPCR): downregulated

Molecule: CCN(CC)c1ccc(C=O)cc1 [DEAB]
- TP63 and pharyngeal marker expression of spheroids (foregut spheroids; cultures containing DEAB (blocking RA synthesis)): spheroids with minimal TP63 expression and increased levels of the pharyngeal markers PAX9 and OTX2

Molecule: CC1=C(/C=C/C(C)=C/C=C/C(C)=C/C(=O)O)C(C)(C)CCC1 [RA, all-trans retinoic acid]
- marker expression after RA treatment (foregut spheroids; 1 day of RA): promotes expression of TP63 and KRT4 and not posterior foregut markers GATA4 and PDX1; also recorded: spheroids that express TP63
- marker expression after RA treatment (foregut spheroids; RA for 4 days): express posterior foregut markers, GATA4 and PDX1

Molecule: Cc1c[nH]c(-c2cnc(NCCNc3ccc(C#N)cn3)nc2-c2ccc(Cl)cc2Cl)n1 [chiron, CHIR99021]
- gene expression profile of spheroids, chiron versus Wnt3a (foregut spheroids; one day of chiron treatment, qPCR): same gene expression profile as those generated with 2 days of Wnt3a
- regional identity of foregut spheroids (HNF1β, SOX2, PROX1, HNF6) (foregut spheroids): formation of anterior foregut (AFG) spheroids expressing HNF1β and SOX2, with low levels of posterior foregut markers PROX1 and HNF6

Molecule: IL-13: a cytokine known to enact broad changes in the esophagus
- epithelial morphology by electron microscopy (HEOs [1]; IL-13 100 ng/mL for 2 weeks): increased spaces between individual cells and a decrease in cell-cell contacts
- EdU incorporation in the basal-most p63+ cells (HEOs [1]; IL-13 100 ng/mL for 2 weeks, EdU 2 days): increased
- BMP antagonists NOG and FST expression (HEOs [1]; IL-13 100 ng/mL for 2 weeks, qPCR): did not upregulate
- epithelial morphology (HEOs [1]; IL-13 100 ng/mL for 2 weeks, IF, H&E): dilated intercellular spaces suprabasally
- late differentiation and structural proteins (HEOs [1]; IL-13 100 ng/mL, 1-2 weeks): downregulated late differentiation and structural proteins DSG1, IVL, and CRNN
- PTCH1 expression (read-out for hedgehog signaling) (HEOs [1]; IL-13 alone): upregulates
- BMP target gene ID3 expression (HEOs [1]; day 62 HEOs, qPCR): mild increase
- IL-13 target gene response (HEOs [1]; extended treatment (100 ng/mL, 1 week), Western blot): maintained upregulation of some target genes SERPINB13 and CDH26
- IL-13 target gene response (HEOs [1]; short duration (2 days prior to harvest), day 62 HEOs, qPCR): validated the response of target genes CCL26, CDH26, CAPN14, and SERPINB4

B1: BMP4: recombinant human BMP4 (protein, UniProt P12644 293-408, looked up)
Bone morphogenetic protein 4: SPKHHSQRARKKNKNCRRHSLYVDFSDVGWNDWIVAPPGYQAFYCHGDCPFPLADHLNSTNHAIVQTLVNSVNSSIPKACCVPTELSAISMLYLDEYDKVVLKNYQEMVVEGCGCR
- state of remaining basal cells (pSMAD1/5/9, p63, SOX2) (HEOs [2]; [3]): have active BMP signaling (pSMAD1/5/9+) and express p63, but loss expression of SOX2
- stratification and differentiation markers (HEOs [2]; [3]): loss of stratification and expression of differentiation markers
- EdU incorporation (HEOs [2]; BMP4 treated HEOs, day 62): minimal EdU incorporation
- CDX2 expression (HEOs [2]; BMP4 treated HEOs, data not shown): unchanged

B2: Wnt3a: recombinant human Wnt3a, Wnt ligand (protein, UniProt P56704 19-352, looked up)
Protein Wnt-3a: SYPIWWSLAVGPQYSSLGSQPILCASIPGLVPKQLRFCRNYVEIMPSVAEGIKIGIQECQHQFRGRRWNCTTVHDSLAIFGPVLDKATRESAFVHAIASAGVAFAVTRSCAEGTAAICGCSSRHQGSPGKGWKWGGCSEDIEFGGMVSREFADARENRPDARSAMNRHNNEAGRQAIASHMHLKCKCHGLSGSCEVKTCWWSQPDFRAIGDFLKDKYDSASEMVVEKHRESRGWVETLRPRYTYFKVPTERDLVYYEASPNFCEPNPETGSFGTRDRTCNVSSHGIDGCDLLCCGRGHNARAERRREKCRCVFHWCCYVSCQECTRVYDVHTCK
- regional identity of foregut spheroids (HNF1β, SOX2, PROX1, HNF6) (foregut spheroids): formation of anterior foregut (AFG) spheroids expressing HNF1β and SOX2, with low levels of posterior foregut markers PROX1 and HNF6

B3: Noggin: recombinant human Noggin, used to inhibit BMP signaling (protein, UniProt Q13253 28-232, looked up)
Noggin: QHYLHIRPAPSDNLPLVDLIEHPDPIFDPKEKDLNETLLRSLLGGHYDPGFMATSPPEDRPGGGGGAAGGAEDLAELDQLLRQRPSGAMPSEIKGLEFSEGLAQGKKQRLSKKLRRKLQMWLWSQTFCPVLYAWNDLGSRFWPRYVKVGSCFSKRSCSVPEGMVCKPSKSVHLTVLRWRCQRRGGQRCGWIPIQYPIISECKCSC
- dorsal-ventral marker expression (NKX2-1, SOX2, MNX1, KRT4, TP63) (AFG spheroids): dorsalized spheroids, as marked by elevated levels of SOX2, MNX1, KRT4, and TP63
